Source: PubChem BioAssay AID1963854 (Molecular Pharmacology Branch, DTP, NCI, 2024)

Tested on: 186277-243-T-J2-PDC complex spheroid viability
Assay: Anticancer human tumor 186277-243-T-J2-PDC patient-derived colon adenocarcinoma cell line growth inhibition [POLQ]
Settings: for IC50: curve of first compound; for viability, T/C: stronger effect = lower value
In short: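 Three-cell-type spheroids modelling solid tumor plus stroma served as the readout system; POL inhibitors were tested individually and in combination, concentration ranges set by clinical Cmax where known.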

[1] = second compound 0.0316 µM, first compound 0.0316 µM
[2] = second compound 0.0316 µM, first compound 0.1 µM
[3] = second compound 0.0316 µM, first compound 0.316 µM
[4] = second compound 0.0316 µM, first compound 1 µM
[5] = second compound 0.0316 µM, first compound 3.16 µM
[6] = second compound 0.0316 µM, first compound 10 µM
[7] = second compound 0.1 µM, first compound 0.0316 µM
[8] = second compound 0.1 µM, first compound 0.1 µM
[9] = second compound 0.1 µM, first compound 0.316 µM
[10] = second compound 0.1 µM, first compound 1 µM
[11] = second compound 0.1 µM, first compound 3.16 µM
[12] = second compound 0.1 µM, first compound 10 µM
[13] = second compound 0.316 µM, first compound 0.0316 µM
[14] = second compound 0.316 µM, first compound 0.1 µM
[15] = second compound 0.316 µM, first compound 0.316 µM
[16] = second compound 0.316 µM, first compound 1 µM
[17] = second compound 0.316 µM, first compound 3.16 µM
[18] = second compound 0.316 µM, first compound 10 µM
[19] = second compound 1 µM, first compound 0.0316 µM
[20] = second compound 1 µM, first compound 0.1 µM
[21] = second compound 1 µM, first compound 0.316 µM
[22] = second compound 1 µM, first compound 1 µM
[23] = second compound 1 µM, first compound 3.16 µM
[24] = second compound 1 µM, first compound 10 µM
[25] = second compound 3.16 µM, first compound 0.0316 µM
[26] = second compound 3.16 µM, first compound 0.1 µM
[27] = second compound 3.16 µM, first compound 0.316 µM
[28] = second compound 3.16 µM, first compound 1 µM
[29] = second compound 3.16 µM, first compound 3.16 µM
[30] = second compound 3.16 µM, first compound 10 µM
[31] = second compound 10 µM, first compound 0.0316 µM
[32] = second compound 10 µM, first compound 0.1 µM
[33] = second compound 10 µM, first compound 0.316 µM
[34] = second compound 10 µM, first compound 1 µM
[35] = second compound 10 µM, first compound 3.16 µM
[36] = second compound 10 µM, first compound 10 µM
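Note: spheroids exposed to compounds for seven days.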
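Throughout, for viability, T/C: 100% = DMSO vehicle control viability.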

## CCc1cc2c(N3CCc4c(cc(Cn5ccnc5)cc4-c4cn(C)nc4C(F)(F)F)C3=O)ccnc2c(OC)n1 + Cc1cccc(N(C)C(=O)C2C(O)CCN2c2nc(C)cc(C(F)(F)F)c2C#N)c1
Second compound 0.0316 µM
  IC50: > 10 µM
Second compound 0.1 µM
  IC50: > 10 µM
Second compound 0.316 µM
  IC50: > 10 µM
Second compound 1 µM
  IC50: > 10 µM
Second compound 3.16 µM
  IC50: > 10 µM
Second compound 10 µM
  IC50: > 10 µM
[1]
  viability, T/C: 96.1%
[2]
  viability, T/C: 82.8%
[3]
  viability, T/C: 96.2%
[4]
  viability, T/C: 96.2%
[5]
  viability, T/C: 106%
[6]
  viability, T/C: 100%
[7]
  viability, T/C: 90.7%
[8]
  viability, T/C: 98.5%
[9]
  viability, T/C: 107%
[10]
  viability, T/C: 88.6%
[11]
  viability, T/C: 112%
[12]
  viability, T/C: 103%
[13]
  viability, T/C: 96.7%
[14]
  viability, T/C: 95.2%
[15]
  viability, T/C: 97.2%
[16]
  viability, T/C: 106%
[17]
  viability, T/C: 109%
[18]
  viability, T/C: 107%
[19]
  viability, T/C: 102%
[20]
  viability, T/C: 127%
[21]
  viability, T/C: 107%
[22]
  viability, T/C: 100%
[23]
  viability, T/C: 93.6%
[24]
  viability, T/C: 102%
[25]
  viability, T/C: 93.8%
[26]
  viability, T/C: 97.3%
[27]
  viability, T/C: 100%
[28]
  viability, T/C: 118%
[29]
  viability, T/C: 119%
[30]
  viability, T/C: 106%
[31]
  viability, T/C: 114%
[32]
  viability, T/C: 94.7%
[33]
  viability, T/C: 111%
[34]
  viability, T/C: 96.8%
[35]
  viability, T/C: 108%
[36]
  viability, T/C: 109%

## C=CC(=O)N1CCN(c2nc(=O)n(-c3c(C)ccnc3C(C)C)c3nc(-c4c(O)cccc4F)c(F)cc23)C(C)C1 (stereo unspecified) + Nc1ccc(C#CCN(C(=O)Cc2ncc(C(F)(F)F)cc2C(F)(F)F)c2ccc(F)cc2)nn1
Second compound 0.0316 µM
  IC50: > 10 µM
Second compound 0.1 µM
  IC50: > 10 µM
Second compound 0.316 µM
  IC50: > 10 µM
Second compound 1 µM
  IC50: > 10 µM
Second compound 3.16 µM
  IC50: > 10 µM
Second compound 10 µM
  IC50: > 10 µM
[1]
  viability, T/C: 98.7%
[2]
  viability, T/C: 84.2%
[3]
  viability, T/C: 96.2%
[4]
  viability, T/C: 83.5%
[5]
  viability, T/C: 115%
[6]
  viability, T/C: 101%
[7]
  viability, T/C: 93.1%
[8]
  viability, T/C: 94.5%
[9]
  viability, T/C: 102%
[10]
  viability, T/C: 103%
[11]
  viability, T/C: 95.1%
[12]
  viability, T/C: 112%
[13]
  viability, T/C: 91%
[14]
  viability, T/C: 106%
[15]
  viability, T/C: 100%
[16]
  viability, T/C: 96.1%
[17]
  viability, T/C: 92.6%
[18]
  viability, T/C: 100%
[19]
  viability, T/C: 91.8%
[20]
  viability, T/C: 101%
[21]
  viability, T/C: 90%
[22]
  viability, T/C: 87.1%
[23]
  viability, T/C: 96%
[24]
  viability, T/C: 104%
[25]
  viability, T/C: 97.6%
[26]
  viability, T/C: 92.3%
[27]
  viability, T/C: 97.7%
[28]
  viability, T/C: 102%
[29]
  viability, T/C: 99.3%
[30]
  viability, T/C: 101%
[31]
  viability, T/C: 112%
[32]
  viability, T/C: 99.9%
[33]
  viability, T/C: 107%
[34]
  viability, T/C: 101%
[35]
  viability, T/C: 95.9%
[36]
  viability, T/C: 105%

## CCc1c2c(nc3ccc(O)cc13)-c1cc3c(c(=O)n1C2)COC(=O)[C@]3(O)CC + Cc1cccc(N(C)C(=O)C2C(O)CCN2c2nc(C)cc(C(F)(F)F)c2C#N)c1
Second compound 0.0316 µM
  IC50: 0.00932 µM
Second compound 0.1 µM
  IC50: 0.0102 µM
Second compound 0.316 µM
  IC50: 0.0108 µM
Second compound 1 µM
  IC50: 0.0101 µM
Second compound 3.16 µM
  IC50: 0.00958 µM
Second compound 10 µM
  IC50: 0.00553 µM
Second compound 0.0316 µM, first compound 0.00316 µM
  viability, T/C: 69%
Second compound 0.0316 µM, first compound 0.01 µM
  viability, T/C: 48.5%
[1]
  viability, T/C: 27%
[2]
  viability, T/C: 12.7%
[3]
  viability, T/C: 10.5%
[4]
  viability, T/C: 7.92%
Second compound 0.1 µM, first compound 0.00316 µM
  viability, T/C: 74%
Second compound 0.1 µM, first compound 0.01 µM
  viability, T/C: 50.3%
[7]
  viability, T/C: 25.7%
[8]
  viability, T/C: 12.8%
[9]
  viability, T/C: 9.86%
[10]
  viability, T/C: 7.71%
Second compound 0.316 µM, first compound 0.00316 µM
  viability, T/C: 66.5%
Second compound 0.316 µM, first compound 0.01 µM
  viability, T/C: 51.6%
[13]
  viability, T/C: 27.9%
[14]
  viability, T/C: 13.8%
[15]
  viability, T/C: 9.55%
[16]
  viability, T/C: 8.34%
Second compound 1 µM, first compound 0.00316 µM
  viability, T/C: 73%
Second compound 1 µM, first compound 0.01 µM
  viability, T/C: 50.3%
[19]
  viability, T/C: 24%
[20]
  viability, T/C: 12.7%
[21]
  viability, T/C: 10.4%
[22]
  viability, T/C: 7.86%
Second compound 3.16 µM, first compound 0.00316 µM
  viability, T/C: 59.1%
Second compound 3.16 µM, first compound 0.01 µM
  viability, T/C: 50.1%
[25]
  viability, T/C: 24.3%
[26]
  viability, T/C: 12.1%
[27]
  viability, T/C: 9.42%
[28]
  viability, T/C: 6.8%
Second compound 10 µM, first compound 0.00316 µM
  viability, T/C: 58.6%
Second compound 10 µM, first compound 0.01 µM
  viability, T/C: 40.8%
[31]
  viability, T/C: 21%
[32]
  viability, T/C: 9.71%
[33]
  viability, T/C: 8.72%
[34]
  viability, T/C: 6.68%
